Consider two substances from PMC4028821 (Chemical communications (Cambridge, England), 2014).

The test addresses PARP1 (Homo sapiens, UniProt P09874). Put plainly: enzyme inhibition assay with recombinant human PARP1. The class given is biochemical.

Sequence of PARP1 (P09874 2-1014): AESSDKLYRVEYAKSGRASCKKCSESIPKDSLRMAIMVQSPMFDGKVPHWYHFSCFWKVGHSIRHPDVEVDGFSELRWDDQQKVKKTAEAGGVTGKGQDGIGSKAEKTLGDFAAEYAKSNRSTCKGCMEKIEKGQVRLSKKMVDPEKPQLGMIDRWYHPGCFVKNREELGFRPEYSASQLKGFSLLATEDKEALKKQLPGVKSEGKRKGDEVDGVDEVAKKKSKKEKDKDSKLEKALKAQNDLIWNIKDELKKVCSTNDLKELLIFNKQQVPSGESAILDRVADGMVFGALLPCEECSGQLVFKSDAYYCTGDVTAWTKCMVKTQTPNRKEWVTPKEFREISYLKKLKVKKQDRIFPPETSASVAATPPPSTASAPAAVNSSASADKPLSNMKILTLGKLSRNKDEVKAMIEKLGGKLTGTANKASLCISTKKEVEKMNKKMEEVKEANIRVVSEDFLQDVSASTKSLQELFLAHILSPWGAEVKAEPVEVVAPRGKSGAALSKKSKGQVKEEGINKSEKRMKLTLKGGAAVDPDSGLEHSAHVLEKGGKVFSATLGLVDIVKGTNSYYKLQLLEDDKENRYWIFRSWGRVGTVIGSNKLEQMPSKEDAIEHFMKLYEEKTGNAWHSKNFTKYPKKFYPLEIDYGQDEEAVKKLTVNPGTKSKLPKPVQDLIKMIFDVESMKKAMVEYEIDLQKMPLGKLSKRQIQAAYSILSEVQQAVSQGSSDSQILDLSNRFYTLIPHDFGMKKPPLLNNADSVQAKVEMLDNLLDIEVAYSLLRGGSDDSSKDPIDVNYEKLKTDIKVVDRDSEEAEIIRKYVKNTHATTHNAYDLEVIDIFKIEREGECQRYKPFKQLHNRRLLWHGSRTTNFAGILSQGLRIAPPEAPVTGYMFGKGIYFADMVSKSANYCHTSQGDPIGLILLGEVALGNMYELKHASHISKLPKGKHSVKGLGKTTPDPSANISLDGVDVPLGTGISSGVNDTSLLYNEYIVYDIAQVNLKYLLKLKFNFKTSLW

For the substance Olaparib-SiR-Me [compound 6], the IC50 is 99.2 nM.

Consider Olaparib-SiR-COOH [compound 10], for which the IC50 is 100 nM.
